Paper PMC5762315, “Inhibition of polo-like kinase 4 (PLK4): a new therapeutic option for rhabdoid tumors and pediatric medulloblastoma” (Oncotarget, 2017)

Experiments:
[1] = system: MON cells; test: Combination therapy viability assay, MON; assay type: cell-based; conditions: Homo sapiens, cytotoxic drug alone, 72 hours, read-out: IC50 of compound 2
[2] = system: BT-16 cells; test: Combination therapy viability assay, BT-16; assay type: cell-based; conditions: Homo sapiens, cytotoxic drug alone, 72 hours, read-out: IC50 of compound 2
[3] = system: DAOY cells; test: Combination therapy viability assay, DAOY; conditions: Homo sapiens, 72 h, read-out: IC50 of compound 2

SMILES | IC50 [1] [nM] | IC50 [2] [nM] | IC50 [3] [nM]
COc1cccc2c1C(=O)c1c(O)c3c(c(O)c1C2=O)C[C@@](O)(C(=O)CO)C[C@@H]3O[C@H]1C[C@H](N)[C@H](O)[C@H](C)O1 [Doxorubicin, doxorubicin] | 134 | 1430 | 263
COc1cc([C@@H]2c3cc4c(cc3[C@@H](O[C@@H]3O[C@@H]5CO[C@@H](C)O[C@H]5[C@H](O)[C@H]3O)[C@H]3COC(=O)[C@H]23)OCO4)cc(OC)c1O [Etoposide, etoposide] | 967 | 800 | 495
